These results are taken from the SangsterLogP compilation.

For orientation: logP means a log measure of how a compound divides between an organic and an aqueous phase. Low readings indicate lower lipophilicity, high ones higher lipophilicity.

The molecule `C=CCN(CC=C)N=Nc1ccccc1C(=O)O` yielded a lipophilicity (logP) of 0.62.
Molecule `CCOC(=O)c1ccc(N=NN(C)CCO)cc1` came in with a logP of 2.66.
The value for `CCN(CC)N=Nc1ccccc1C(N)=O` was 2.96; that for `CC(=O)N(C)N=Nc1ccc(C(N)=O)cc1` was 1.37.
For `CCCCN(C)N=Nc1ccc(C(=O)O)cc1` the value was 0.96; for `CCN(CC)/N=N/c1ccc(C(N)=O)cc1`, 2.26; for `CC(C)N(N=Nc1ccc(C(N)=O)cc1)C(C)C`, 3.
The value for `CN(C)/N=N/c1cccc(C(=O)O)c1` was -0.38.
The molecule `CN(C)/N=N/c1ccc(S(C)(=O)=O)cc1` registered a logP of 1.59.
The value for `CCOC(=O)c1ccc(/N=N/N(C)C)cc1` was 3.66; that for `COC(=O)c1cccc(/N=N/N(C)C)c1` was 3.12.
For `CN(C)N=Nc1ccc(S(=O)(=O)CCO)cc1` the value was 1.15; for `CN(CC(F)(F)F)N=Nc1ccc(C(N)=O)cc1`, 1.86; for `CCCCCN(C)N=Nc1ccc(C(N)=O)cc1`, 3.18.
Regarding `CCNN=Nc1ccc(C(N)=O)cc1`, the logP was found to be 1.19.
The value for `CN(C)/N=N/c1ccccc1C(=O)O` was -0.28.
The value for `CN(C)/N=N/c1ccc(S(N)(=O)=O)cc1` was 0.85; that for `CNN=Nc1ccc(C(N)=O)cc1` was 0.48.
For `CN(C)/N=N/c1ccc([N+](=O)[O-])cc1` the value was 3.25; for `CCN(C)N=Nc1ccccc1C(=O)O`, 0.11; for `CCCCN(C)/N=N/c1ccc(C(N)=O)cc1`, 2.68.
Turning to `COC(=O)c1ccc(/N=N/N(C)C)cc1`, the logP came to 3.22.
The value for `CCN(C)/N=N/c1ccccc1C(N)=O` was 2.59; that for `CN(C)/N=N/c1ccc(C(F)(F)F)cc1` was 4.
`CCCCCN(C)N=Nc1ccc(C(=O)O)cc1` yielded a log partition coefficient (logP) of 1.46.
Consider `CCN(CC)N=Nc1cc([N+](=O)[O-])cc([N+](=O)[O-])c1`, for which the logP stood at 4.69.
The value for `CN(C)/N=N/c1cccc(C(N)=O)c1` was 1.3.
The value for `CCN(CC)N=Nc1ccc(S(C)(=O)=O)cc1` was 2.6; that for `CCN(C)/N=N/c1ccc(C(N)=O)cc1` was 1.69; that for `COC(=O)c1ccccc1/N=N/N(C)C` was 2.51.
For `COc1ccc(/N=N/N(C)C)cc1` the value was 2.99.
As for `CCCCCN(C)N=Nc1ccc(S(=O)(=O)Nc2nccc(C)n2)cc1`, the logP came out at 2.34.
The value for `CCCC(C)N(C)N=Nc1ccc(C(=O)O)cc1` (stereo not given) was 1.35.
Molecule `CN(Cc1ccccc1)N=Nc1ccc(C(N)=O)cc1` registered a logP of 2.77.
The value for `CCCN(C)N=Nc1ccc(C(N)=O)cc1` was 2.17.
For `CN(C)N=Nc1ccc(S(=O)(=O)Nc2ccno2)cc1` the value was 0.42; for `CCCCCN(C)N=Nc1ccc(S(=O)(=O)Nc2ccccn2)cc1`, 2.16; for `CCCN(C)N=Nc1ccc(C(=O)O)cc1`, 0.46.
For `CCN(CC)N=Nc1ccccc1C(=O)O` the value was 1.49; for `CCCCN(C)/N=N/c1ccccc1C(N)=O`, 3.52.
